The target of assay [1] is T1, PBP3 from Pseudomonas aeruginosa (PAO1) (Pseudomonas aeruginosa, UniProt G3XD46).
T1 construct: made in house
Nature of the assay: Bocillin-FL fluorescence polarization competition binding, P. aeruginosa PBP3. The following applies: Binding affinity to P. aeruginosa PBP3; fluorescence polarization competition binding assay using Bocillin-FL; read-out: P. aeruginosa PBP3 Potency. In outline: (§1)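 Purified PBPs pre-incubated with inhibitor (E. coli PBP3 1.5 μM, 30 min; P. aeruginosa PBP3 0.75 μM, A. baumannii PBP1a 1 μM and PBP3 0.2 μM, 15 min), then Bocillin-FL 0.1 μM (0.05 μM for PBP1a) added; FP read up to 60 min. EC50 = concentration halving bound Bocillin-FL.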

The subject of assay [2] is P. aeruginosa CDC-0090. Nature of the assay: microbe, parasite or virus in culture. In kind it is cell-based. The following applies: Pseudomonas aeruginosa, CDC0090, read-out: Minimum inhibitory concentration, P. aeruginosa CDC-0090.
Assay [3] deals with A. baumannii CDC-0033. Nature of the assay: microbe, parasite or virus in culture. In kind it is cell-based. The following applies: Acinetobacter baumannii, CDC0033, read-out: MIC, A. baumannii CDC-0033.
Assay [4] concerns the target T2, PBP3 from Escherichia coli (K-12) (Escherichia coli, UniProt P0AD68).
T2 construct: made in house
Nature of the assay: Bocillin-FL fluorescence polarization competition binding, E. coli PBP3. In outline:
as §1
A general note: In fluorescence polarisation assays a small probe gives low polarisation when free and higher when bound to something large.

Assay [5] concerns P. aeruginosa CDC-0095. The assay is described as follows: microbe, parasite or virus in culture. In kind it is cell-based. The settings on record: Pseudomonas aeruginosa, CDC0095, read-out: Minimum inhibitory concentration, P. aeruginosa CDC-0095.
For assay [6], the target named is T3, PBP3 from Acinetobacter baumannii (ATCC 19606) (Acinetobacter baumannii, UniProt A0ABX6CK25).
T3 sequence (A0ABX6CK25 64-610): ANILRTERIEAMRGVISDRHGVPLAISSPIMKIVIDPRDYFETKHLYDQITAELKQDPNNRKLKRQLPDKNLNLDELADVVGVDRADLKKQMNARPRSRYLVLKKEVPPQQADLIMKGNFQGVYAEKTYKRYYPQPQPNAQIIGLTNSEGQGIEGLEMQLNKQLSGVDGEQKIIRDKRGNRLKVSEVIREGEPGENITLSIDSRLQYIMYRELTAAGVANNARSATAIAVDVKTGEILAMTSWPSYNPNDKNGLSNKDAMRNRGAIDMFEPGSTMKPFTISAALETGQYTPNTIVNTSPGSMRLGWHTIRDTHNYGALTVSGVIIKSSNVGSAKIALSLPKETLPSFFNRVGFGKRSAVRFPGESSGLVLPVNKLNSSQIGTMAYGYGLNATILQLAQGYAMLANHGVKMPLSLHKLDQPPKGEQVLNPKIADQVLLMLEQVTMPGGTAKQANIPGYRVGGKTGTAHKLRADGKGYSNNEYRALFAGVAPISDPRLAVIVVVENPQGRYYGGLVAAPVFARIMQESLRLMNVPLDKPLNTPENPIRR
Nature of the assay: Bocillin-FL fluorescence polarization competition binding, A. baumannii PBP3. The settings on record: fluorescence polarization competition binding assay using Bocillin-FL; read-out: A. baumannii PBP3 Potency. In outline: as §1

Assay [7] has as its system P. aeruginosa ATCC 35151. Nature of the assay: microbe, parasite or virus in culture. Format: cell-based. The settings on record: Pseudomonas aeruginosa, ATCC35151, read-out: Minimum inhibitory concentration, P. aeruginosa ATCC 35151.
The subject of assay [8] is B. thailandensis ATCC 700388. Nature of the assay: microbe, parasite or virus in culture. The settings on record: Burkholderia thailandensis, ATCC700388, read-out: Minimum inhibitory concentration (MIC), B. thailandensis ATCC 700388. In kind it is cell-based.

Drawing on patent US20240270762A1, “PENICILLIN-BINDING PROTEIN INHIBITORS” (priority 2021, published 2024), this text covers IC50, MIC and EC50 for five molecules.

Structures are written as SMILES. In brackets after ≈: the same amount, converted by molar mass.

As usually defined, the EC50 is the concentration at which the effect is half-maximal.

T2 sequence (P0AD68 1-577): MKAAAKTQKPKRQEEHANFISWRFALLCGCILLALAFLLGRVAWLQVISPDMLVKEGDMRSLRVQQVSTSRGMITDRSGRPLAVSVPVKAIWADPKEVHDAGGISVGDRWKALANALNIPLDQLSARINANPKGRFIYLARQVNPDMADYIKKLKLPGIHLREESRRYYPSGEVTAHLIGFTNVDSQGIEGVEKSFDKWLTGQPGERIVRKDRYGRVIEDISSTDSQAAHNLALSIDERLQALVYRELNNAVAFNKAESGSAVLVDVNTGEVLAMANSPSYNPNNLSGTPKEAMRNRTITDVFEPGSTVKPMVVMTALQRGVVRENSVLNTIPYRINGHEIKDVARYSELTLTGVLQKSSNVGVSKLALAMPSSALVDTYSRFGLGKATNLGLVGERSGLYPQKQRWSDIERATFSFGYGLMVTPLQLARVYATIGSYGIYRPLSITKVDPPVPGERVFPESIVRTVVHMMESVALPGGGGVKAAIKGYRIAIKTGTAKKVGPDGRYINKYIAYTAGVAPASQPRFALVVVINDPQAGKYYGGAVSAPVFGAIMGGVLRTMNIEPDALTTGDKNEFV
T1 sequence (G3XD46 whole entry): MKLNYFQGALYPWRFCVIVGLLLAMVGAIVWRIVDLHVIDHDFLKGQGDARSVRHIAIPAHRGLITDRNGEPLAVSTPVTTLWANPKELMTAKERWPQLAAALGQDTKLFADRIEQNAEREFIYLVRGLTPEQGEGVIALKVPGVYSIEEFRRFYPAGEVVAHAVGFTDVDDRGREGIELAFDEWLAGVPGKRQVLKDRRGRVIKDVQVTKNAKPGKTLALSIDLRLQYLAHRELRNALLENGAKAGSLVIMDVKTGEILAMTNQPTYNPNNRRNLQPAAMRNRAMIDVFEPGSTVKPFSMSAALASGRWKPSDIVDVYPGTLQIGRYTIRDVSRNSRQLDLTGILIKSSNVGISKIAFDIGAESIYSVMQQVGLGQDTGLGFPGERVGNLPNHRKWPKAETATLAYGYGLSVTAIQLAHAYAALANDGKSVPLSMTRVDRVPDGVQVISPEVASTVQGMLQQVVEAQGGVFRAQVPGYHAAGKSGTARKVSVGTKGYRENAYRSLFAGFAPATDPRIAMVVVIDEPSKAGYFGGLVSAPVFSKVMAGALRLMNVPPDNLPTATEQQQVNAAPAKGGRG

For `O=C(NCCCN1CCN(C(=O)NC(C(=O)N[C@H]2Cc3ccc(F)c(C(=O)O)c3OB2O)c2cc(F)c(O)c(O)c2Cl)C(=O)C1=O)c1c(F)cncc1Cl` (stereo partly drawn) [Example 403, (3R)-3-(2-(2-chloro-5-fluoro-3,4-dihydroxyphenyl)-2-(4-(3-(3-chloro-5-fluoroisonicotinamido)propyl)-2,3-dioxopiperazine-1-carboxamido)acetamido)-7-fluoro-2-hydroxy-3,4-dihydro-2H-benzo[e][1,2]oxaborinine-8-carboxylic acid], the IC50 in assay [1] and in assay [6] was less than 10 µM in each case. Moreover, the MIC is 2 to 4 µg/mL (≈ 2.51 to 5.02 µM) in assay [2]; 2 to 4 µg/mL (≈ 2.51 to 5.02 µM) in assay [3]; 2 to 4 µg/mL (≈ 2.51 to 5.02 µM) in assay [5]; less than 1 µg/mL in assay [7]; 2 to 4 µg/mL (≈ 2.51 to 5.02 µM) in assay [8]. Besides, in assay [4], the EC50 was less than 10 µM.
`O=C(O)c1c(F)ccc2c1OB(O)[C@@H](NC(=O)C(NC(=O)N1CCN(C3CCN(C(=O)c4cncc(O)c4)CC3)C(=O)C1=O)c1cc(F)c(O)c(O)c1Cl)C2` (stereo partly drawn) [Example 425, (3R)-3-(2-(2-chloro-5-fluoro-3,4-dihydroxyphenyl)-2-(4-(1-(5-hydroxynicotinoyl)piperidin-4-yl)-2,3-dioxopiperazine-1-carboxamido)acetamido)-7-fluoro-2-hydroxy-3,4-dihydro-2H-benzo[e][1,2]oxaborinine-8-carboxylic acid]: the IC50 in assay [1] and in assay [6] was less than 10 µM each time. Further, the MIC is less than 1 µg/mL in assay [2]; less than 1 µg/mL in assay [3]; 2 to 4 µg/mL (≈ 2.54 to 5.08 µM) in assay [5]; less than 1 µg/mL in assay [7]; less than 1 µg/mL in assay [8]. The EC50 in assay [4] is less than 10 µM.
In the case of `O=C(NCCCN1CCN(C(=O)NC(C(=O)N[C@H]2Cc3ccc(F)c(C(=O)O)c3OB2O)c2cc(F)c(O)c(O)c2Cl)C(=O)C1=O)c1ccc(F)c(O)c1` (stereo partly drawn) [Example 409, (3R)-3-(2-(2-chloro-5-fluoro-3,4-dihydroxyphenyl)-2-(4-(3-(4-fluoro-3-hydroxybenzamido)propyl)-2,3-dioxopiperazine-1-carboxamido)acetamido)-7-fluoro-2-hydroxy-3,4-dihydro-2H-benzo[e][1,2]oxaborinine-8-carboxylic acid], the IC50 in assay [1] and in assay [6] was less than 10 µM throughout. Moreover, the MIC in assay [2] was less than 1 µg/mL; in assay [3] it was 2 to 4 µg/mL (≈ 2.57 to 5.14 µM); in assay [5] it was 2 to 4 µg/mL (≈ 2.57 to 5.14 µM); in assay [7] it was less than 1 µg/mL; in assay [8], 2 to 4 µg/mL (≈ 2.57 to 5.14 µM). This molecule yielded an EC50 in assay [4] of less than 10 µM.
As to `O=C(NCCCN1CCN(C(=O)NC(C(=O)N[C@H]2Cc3ccc(F)c(C(=O)O)c3OB2O)c2cc(F)c(O)c(O)c2Cl)C(=O)C1=O)c1cc(O)cc(O)c1` (stereo partly drawn) [Example 423, (3R)-3-(2-(2-chloro-5-fluoro-3,4-dihydroxyphenyl)-2-(4-(3-(3,5-dihydroxybenzamido)propyl)-2,3-dioxopiperazine-1-carboxamido)acetamido)-7-fluoro-2-hydroxy-3,4-dihydro-2H-benzo[e][1,2]oxaborinine-8-carboxylic acid], the IC50 in assay [1] and in assay [6] was less than 10 µM each time. Further, the MIC was less than 1 µg/mL in assay [2]; 2 to 4 µg/mL (≈ 2.58 to 5.16 µM) in assay [3]; less than 1 µg/mL in assay [5]; less than 1 µg/mL in assay [7]; less than 1 µg/mL in assay [8]. This molecule showed an EC50 in assay [4] of less than 10 µM.
For `O=C(NCCCN1CCN(C(=O)N[C@@H](C(=O)N[C@H]2Cc3ccc(F)c(C(=O)O)c3OB2O)c2cc(F)c(O)c(O)c2Cl)C(=O)C1=O)c1cc(F)c(O)cc1F` (single isomer, unassigned) [Example 473], the IC50 in assay [1] and in assay [6] was less than 10 µM each time. In addition, the MIC is 2 to 4 µg/mL (≈ 2.51 to 5.03 µM) in assay [2]; 2 to 4 µg/mL (≈ 2.51 to 5.03 µM) in assay [3]; less than 1 µg/mL in assay [5]; less than 1 µg/mL in assay [7]; less than 1 µg/mL in assay [8]. In assay [4], this molecule gave an EC50 of less than 10 µM.
